Results on two compounds are retold here after patent US20030022876A1, “Sustained-release analgesic compounds” (priority 2001, published 2003).

Data set [1] can be described thus: Stability (half-life) in human plasma at 37° C., HPLC analysis. It is filed as in vitro ADME. The settings on record: stock solution diluted 10 fold. The procedure: (§1) This stock solution was diluted 10 fold in either 0.1 M phosphate buffer, pH 7.4, or human plasma, and the working solution was placed in a water bath at 37° C. Samples had been taken every hour for the plasma and every couple of hours for the buffer.

Data set [2] is described as follows: Stability (half-life) in 0.1 M phosphate buffer, pH 7.4, at 37° C., HPLC analysis. Type of data set: physicochemical. The note with it: pH 7.4, 37° C. The procedure:
as §1

As a reminder, the half-life is the time in which the quantity being followed falls by half. Low values mean rapid decline, high ones slow decline. As for `CN1CC[C@]23c4c5ccc(OC(=O)Cc6ccccc6Nc6c(Cl)cccc6Cl)c4O[C@H]2[C@@H](O)C=C[C@H]3[C@H]1C5` [Inventive compound (10)], the half-life at 0.1 mg/ml in data set [1] is 0.35 ± 0.0167 h; in data set [2], 2.5 ± 0.5 h.
In the same order, the values of `COc1ccc2cc(C(C)C(=O)OCOC(=O)Oc3ccc4c5c3O[C@H]3[C@@H](O)C=CC6[C@@H](C4)N(C)CC[C@@]563)ccc2c1` (stereo partly shown) [Inventive compound (16)] are 0.0583 ± 0.01 h and 7.6 ± 0.5 h.
